# Patent US8916573B2, “Quinazoline-2,4-dione derivatives” (Actelion Pharmaceuticals Ltd., priority 2011, dated 2014)
# System: S. aureus 29213
# Test: Bacterial growth minimal inhibitory concentrations (microdilution, cation-adjusted Mueller-Hinton Broth, CLSI M7-A7)
# Type: cell-based
# Details: Staphylococcus aureus, 29213; microdilution in cation-adjusted Mueller-Hinton Broth
# Description: Bacterial Growth Minimal Inhibitory Concentrations: Minimal inhibitory concentrations (MICs; mg/l) were determined in cation-adjusted MuellerHinton Broth by a microdilution method following the description given in “Methods for Dilution Antimicrobial Susceptibility Tests for Bacteria that Grow Aerobically”, Approved standard, 7th ed., Clinical and Laboratory Standards Institute (CLSI) Document M7-A7, Wayne, Pa., USA, 2006. Typical antibacterial test results are given in Table 1 hereafter (MIC in mg/l).
row,SMILES,MIC [µg/mL]
1,"Cn1c(=O)n(CC(O)CC[C@@H]2CN(c3ccc4c(n3)NC(=O)CS4)C(=O)O2)c(=O)c2ccccc21 (mixture of isomers) [Example 50, 3-{(RS)-2-hydroxy-4-[(R)-2-oxo-3-(3-oxo-3,4-dihydro-2H-pyrido[3,2-b][1,4]thiazin-6-yl)-oxazolidin-5-yl]-butyl}-1-methyl-1H-quinazoline-2,4-dione]",0.125
2,"O=C1CSc2ccc(N3CC(CCCCn4c(=O)[nH]c5ccccc5c4=O)OC3=O)cc2N1 (racemic) [Example 48, rac-3-{4-[2-oxo-3-(3-oxo-3,4-dihydro-2H-benzo[1,4]thiazin-6-yl)-oxazolidin-5-yl]-butyl}-1H-quinazoline-2,4-dione]",0.031
3,"Cn1c(=O)n(C[C@H](O)CC[C@@H]2CN(c3ccc4c(c3)NC(=O)CO4)C(=O)O2)c(=O)c2ccccc21 (racemic) [Example 49, 3-{(RS)-2-hydroxy-4-[(RS)-2-oxo-3-(3-oxo-3,4-dihydro-2H-benzo[1,4]oxazin-6-yl)-oxazolidin-5-yl]-butyl}-1-methyl-1H-quinazoline-2,4-dione]",1
4,"COC(=O)/C=C/c1ccc2c(=O)n(CCNCCC3CN(c4ccc5c(c4)NC(=O)CS5)C(=O)O3)c(=O)n(C)c2c1 (racemic) [Example 63, rac-(E)-3-[1-methyl-2,4-dioxo-3-(2-{2-[2-oxo-3-(3-oxo-3,4-dihydro-2H-benzo[1,4]thiazin-6-yl)-oxazolidin-5-yl]-ethylamino}-ethyl)-1,2,3,4-tetrahydro-quinazolin-7-yl]-acrylic acid methyl ester]",0.031
5,"O=C1CSc2ccc(N3C[C@H](CCCn4c(=O)[nH]c5ccccc5c4=O)OC3=O)cc2N1 [Example 1, 3-{3-[(S)-2-oxo-3-(3-oxo-3,4-dihydro-2H-benzo[1,4]thiazin-6-yl)-oxazolidin-5-yl]-propyl}-1H-quinazoline-2,4-dione]",≤ 0.016
6,"Cn1c(=O)n(CCC[C@H]2CN(c3ccc4c(n3)NC(=O)CS4)C(=O)O2)c(=O)c2ccccc21 [Example 2, 1-methyl-3-{3-[(S)-2-oxo-3-(3-oxo-3,4-dihydro-2H-pyrido[3,2-b][1,4]thiazin-6-yl)-oxazolidin-5-yl]-propyl}-1H-quinazoline-2,4-dione]",≤ 0.016
7,"Cn1c(=O)n(CCC[C@H]2CN(c3ccc4c(c3)NC(=O)CS4)C(=O)O2)c(=O)c2ccccc21 [Example 3, 1-methyl-3-{3-[(S)-2-oxo-3-(3-oxo-3,4-dihydro-2H-benzo[1,4]-thiazin-6-yl)-oxazolidin-5-yl]-propyl}-1H-quinazoline-2,4-dione]",≤ 0.016
8,"CCCn1c(=O)n(CCC[C@@H]2CN(c3ccc4c(c3)NC(=O)CS4)C(=O)O2)c(=O)c2ccccc21 [Example 4, 3-{3-[(R)-2-oxo-3-(3-oxo-3,4-dihydro-2H-benzo[1,4]-thiazin-6-yl)-oxazolidin-5-yl]-propyl}-1-propyl-1H-quinazoline-2,4-dione]",≤ 0.25
9,"Cc1cccc2[nH]c(=O)n(CCC[C@@H]3CN(c4ccc5c(c4)NC(=O)CS5)C(=O)O3)c(=O)c12 [Example 5, 5-methyl-3-{3-[(R)-2-oxo-3-(3-oxo-3,4-dihydro-2H-benzo[1,4]-thiazin-6-yl)-oxazolidin-5-yl]-propyl}-1H-quinazoline-2,4-dione]",≤ 0.016
10,"Cc1cccc2c1c(=O)n(CCC[C@H]1CN(c3ccc4c(c3)NC(=O)CS4)C(=O)O1)c(=O)n2C [Example 6, 1,5-dimethyl-3-{3-[(S)-2-oxo-3-(3-oxo-3,4-dihydro-2H-benzo[1,4]-thiazin-6-yl)-oxazolidin-5-yl]-propyl}-1H-quinazoline-2,4-dione]",0.031
11,"Cc1cccc2[nH]c(=O)n(CCC[C@H]3CN(c4ccc5c(c4)NC(=O)CS5)C(=O)O3)c(=O)c12 [Example 7, 5-methyl-3-{3-[(S)-2-oxo-3-(3-oxo-3,4-dihydro-2H-benzo[1,4]-thiazin-6-yl)-oxazolidin-5-yl]-propyl}-1H-quinazoline-2,4-dione]",≤ 0.016
12,"Cc1cccc2[nH]c(=O)n(CCC[C@H]3CN(c4ccc5c(n4)NC(=O)CS5)C(=O)O3)c(=O)c12 [Example 8, 5-methyl-3-{3-[(S)-2-oxo-3-(3-oxo-3,4-dihydro-2H-pyrido[3,2-b][1,4]thiazin-6-yl)-oxazolidin-5-yl]-propyl}-1H-quinazoline-2,4-dione]",≤ 0.016
13,"Cc1cccc2[nH]c(=O)n(CCC[C@@H]3CN(c4ccc5c(n4)NC(=O)CO5)C(=O)O3)c(=O)c12 [Example 9, 5-methyl-3-{3-[(R)-2-oxo-3-(3-oxo-3,4-dihydro-2H-pyrido[3,2-b][1,4]oxazin-6-yl)-oxazolidin-5-yl]-propyl}-1H-quinazoline-2,4-dione]",0.031
14,"Cc1ccc2[nH]c(=O)n(CCC[C@@H]3CN(c4ccc5c(c4)NC(=O)CS5)C(=O)O3)c(=O)c2c1 [Example 10, 6-methyl-3-{3-[(R)-2-oxo-3-(3-oxo-3,4-dihydro-2H-benzo[1,4]thiazin-6-yl)-oxazolidin-5-yl]-propyl}-1H-quinazoline-2,4-dione]",0.063
15,"Cc1ccc2c(=O)n(CCC[C@@H]3CN(c4ccc5c(c4)NC(=O)CS5)C(=O)O3)c(=O)[nH]c2c1 [Example 11, 7-methyl-3-{3-[(R)-2-oxo-3-(3-oxo-3,4-dihydro-2H-benzo[1,4]-thiazin-6-yl)-oxazolidin-5-yl]-propyl}-1H-quinazoline-2,4-dione]",0.063
16,"Cc1cccc2c(=O)n(CCC[C@@H]3CN(c4ccc5c(c4)NC(=O)CS5)C(=O)O3)c(=O)[nH]c12 [Example 12, 8-methyl-3-{3-[(R)-2-oxo-3-(3-oxo-3,4-dihydro-2H-benzo[1,4]-thiazin-6-yl)-oxazolidin-5-yl]-propyl}-1H-quinazoline-2,4-dione]",≤ 0.016
17,"Cc1cccc2c(=O)n(CCC[C@H]3CN(c4ccc5c(c4)NC(=O)CS5)C(=O)O3)c(=O)[nH]c12 [Example 13, 8-methyl-3-{3-[(S)-2-oxo-3-(3-oxo-3,4-dihydro-2H-benzo[1,4]thiazin-6-yl)-oxazolidin-5-yl]-propyl}-1H-quinazoline-2,4-dione]",≤ 0.016
18,"Cc1cccc2c(=O)n(CCC[C@H]3CN(c4ccc5c(n4)NC(=O)CS5)C(=O)O3)c(=O)[nH]c12 [Example 14, 8-methyl-3-{3-[(S)-2-oxo-3-(3-oxo-3,4-dihydro-2H-pyrido[3,2-b][1,4]thiazin-6-yl)-oxazolidin-5-yl]-propyl}-1H-quinazoline-2,4-dione]",≤ 0.016
19,"Cc1cccc2c(=O)n(CCC[C@@H]3CN(c4ccc5c(n4)NC(=O)CO5)C(=O)O3)c(=O)[nH]c12 [Example 15, 8-methyl-3-{3-[(R)-2-oxo-3-(3-oxo-3,4-dihydro-2H-pyrido[3,2-b][1,4]oxazin-6-yl)-oxazolidin-5-yl]-propyl}-1H-quinazoline-2,4-dione]",0.063
20,"O=C1CSc2ccc(N3C[C@@H](CCCn4c(=O)[nH]c5cccc(Cl)c5c4=O)OC3=O)cc2N1 [Example 16, 5-chloro-3-{3-[(R)-2-oxo-3-(3-oxo-3,4-dihydro-2H-benzo[1,4]thiazin-6-yl)-oxazolidin-5-yl]-propyl}-1H-quinazoline-2,4-dione]",0.031
21,"O=C1CSc2ccc(N3C[C@@H](CCCn4c(=O)[nH]c5cccc(F)c5c4=O)OC3=O)cc2N1 [Example 17, 5-fluoro-3-{3-[(R)-2-oxo-3-(3-oxo-3,4-dihydro-2H-benzo[1,4]thiazin-6-yl)-oxazolidin-5-yl]-propyl}-1H-quinazoline-2,4-dione]",0.125
22,"O=C1CSc2ccc(N3C[C@H](CCCn4c(=O)[nH]c5cccc(Cl)c5c4=O)OC3=O)cc2N1 [Example 18, 5-chloro-3-{3-[(S)-2-oxo-3-(3-oxo-3,4-dihydro-2H-benzo[1,4]thiazin-6-yl)-oxazolidin-5-yl]-propyl}-1H-quinazoline-2,4-dione]",≤ 0.016
23,"O=C1CSc2ccc(N3C[C@H](CCCn4c(=O)[nH]c5cccc(Cl)c5c4=O)OC3=O)nc2N1 [Example 19, 5-chloro-3-{3-[(S)-2-oxo-3-(3-oxo-3,4-dihydro-2H-pyrido[3,2-b][1,4]thiazin-6-yl)-oxazolidin-5-yl]-propyl}-1H-quinazoline-2,4-dione]",≤ 0.016
24,"O=C1COc2ccc(N3C[C@@H](CCCn4c(=O)[nH]c5cccc(Cl)c5c4=O)OC3=O)nc2N1 [Example 20, 5-chloro-3-{3-[(R)-2-oxo-3-(3-oxo-3,4-dihydro-2H-pyrido[3,2-b][1,4]oxazin-6-yl)-oxazolidin-5-yl]-propyl}-1H-quinazoline-2,4-dione]",0.125
25,"O=C1CSc2ccc(N3C[C@@H](CCCn4c(=O)[nH]c5c(Cl)cccc5c4=O)OC3=O)cc2N1 [Example 21, 8-chloro-3-{3-[(R)-2-oxo-3-(3-oxo-3,4-dihydro-2H-benzo[1,4]thiazin-6-yl)-oxazolidin-5-yl]-propyl}-1H-quinazoline-2,4-dione]",≤ 0.016
26,"O=C1CSc2ccc(N3C[C@H](CCCn4c(=O)[nH]c5c(Cl)cccc5c4=O)OC3=O)nc2N1 [Example 22, 8-chloro-3-{3-[(S)-2-oxo-3-(3-oxo-3,4-dihydro-2H-pyrido[3,2-b][1,4]thiazin-6-yl)-oxazolidin-5-yl]-propyl}-1H-quinazoline-2,4-dione]",≤ 0.016
27,"O=C1COc2ccc(N3C[C@@H](CCCn4c(=O)[nH]c5c(Cl)cccc5c4=O)OC3=O)nc2N1 [Example 23, 8-chloro-3-{3-[(R)-2-oxo-3-(3-oxo-3,4-dihydro-2H-pyrido[3,2-b][1,4]oxazin-6-yl)-oxazolidin-5-yl]-propyl}-1H-quinazoline-2,4-dione]",0.031
28,"O=C1COc2ccc(N3C[C@H](CCCn4c(=O)[nH]c5c(Cl)cccc5c4=O)OC3=O)nc2N1 [Example 24, 8-chloro-3-{3-[(S)-2-oxo-3-(3-oxo-3,4-dihydro-2H-pyrido[3,2-b][1,4]oxazin-6-yl)-oxazolidin-5-yl]-propyl}-1H-quinazoline-2,4-dione]",≤ 0.016
29,"O=C1CSc2ccc(N3C[C@@H](CCCn4c(=O)[nH]c5ccc(Cl)cc5c4=O)OC3=O)cc2N1 [Example 25, 6-chloro-3-{3-[(R)-2-oxo-3-(3-oxo-3,4-dihydro-2H-benzo[1,4]-thiazin-6-yl)-oxazolidin-5-yl]-propyl}-1H-quinazoline-2,4-dione]",0.063
